This experiment has as its system sweet taste. Briefly: Sensory testing by a group of about 5 panelists (sweetness, licorice taste, lingering aftertaste). The class given is in vivo. The settings on record: for Lingering: panelists' rating of lingering aftertaste on a scale from 1 to 10; for Licorice / Sweet: panelists' rating on a scale from 1 to 10. How it is done: Sensory testing was conducted by a group of about 5 panelists. […] The panelists rated the sweetness, licorice taste, and lingering aftertaste of Isomogroside IVE in comparison to Mogroside V on a scale from 1 to 10.

For `C[C@H](CC[C@@H](O[C@@H]1O[C@H](CO[C@@H]2O[C@H](CO)[C@@H](O)[C@H](O)[C@H]2O)[C@@H](O)[C@H](O)[C@H]1O[C@@H]1O[C@H](CO)[C@@H](O)[C@H](O)[C@H]1O)C(C)(C)O)[C@H]1CC[C@@]2(C)[C@@H]3CC=C4[C@@H](CC[C@H](O[C@@H]5O[C@H](CO[C@@H]6O[C@H](CO)[C@@H](O)[C@H](O)[C@H]6O)[C@@H](O)[C@H](O)[C@H]5O)C4(C)C)[C@]3(C)[C@H](O)C[C@]12C` [Mogroside V, reference compound], where the note is “250 ppm”, the Lingering is recorded as 4.6, the Licorice is reported as 3.7 and the Sweet was found to be 5.1.
For `C[C@H](CC[C@@H](O[C@@H]1O[C@H](CO)[C@@H](O)[C@H](O)[C@H]1O[C@@H]1O[C@H](CO)[C@@H](O)[C@H](O)[C@H]1O)C(C)(C)O)[C@H]1CC[C@@]2(C)[C@@H]3CC=C4[C@@H](CC[C@H](O[C@@H]5O[C@H](CO)[C@@H](O[C@@H]6O[C@H](CO)[C@@H](O)[C@H](O)[C@H]6O)[C@H](O)[C@H]5O)C4(C)C)[C@]3(C)[C@H](O)C[C@]12C` [Isomogroside IVE, (1S,4R,9beta,11alpha,24R)-1-{[4-O-(beta-D-glucopyranosyl)-beta-D-glucopyranosyl]oxy}-11,25-dihydroxy-9,10,14-trimethyl-4,9-cyclo-9,10-secocholest-5-en-24-yl 2-O-beta-D-glucopyranosyl-beta-D-glucopyranoside], under “250 ppm, panelists' perception”, the “licorice taste and lingering aftertaste in comparison to Mogroside V” value is recorded as “no statistically significant difference”; the “sweetness in comparison to Mogroside V” value was “somewhat sweeter than Mogroside V”. Besides, under “250 ppm”, the Lingering came to 5.4, the Licorice is given as 4.5 and the Sweet is 7.0. For the same molecule, the “times sweeter than sucrose” value (tasted at 250 ppm in a water base) is given as 200-300 times.

(Values after patent US20220017564A1, “MOGROSIDE COMPOUNDS AND USES THEREOF” (Firmenich SA, priority 2019, published 2022).)
